The values that follow come from US7875647B2, “Heteroaryl-pyrazole derivatives as cannabinoid CB1 receptor antagonists” (Green Cross Corporation, priority 2006, dated 2011).

The target in this assay is T1, Cannabinoid-1 receptor (CB1R) (Rattus norvegicus, UniProt P20272).
T1 construct: The tissue obtained from the brain of SD rats was homogenized; from tissue; host or cells: brain of SD rats (membrane pellet of the homogenate)
The assay is described as follows: Cannabinoid-1 receptor (CB1R) binding affinity assay ([3H]CP-55940, rat CB-1 receptor binding protocol). The following applies: brain tissue of SD rats, [3H]CP-55940, 30° C. 60 min; read-out: IC50.

T1 sequence (P20272 whole entry): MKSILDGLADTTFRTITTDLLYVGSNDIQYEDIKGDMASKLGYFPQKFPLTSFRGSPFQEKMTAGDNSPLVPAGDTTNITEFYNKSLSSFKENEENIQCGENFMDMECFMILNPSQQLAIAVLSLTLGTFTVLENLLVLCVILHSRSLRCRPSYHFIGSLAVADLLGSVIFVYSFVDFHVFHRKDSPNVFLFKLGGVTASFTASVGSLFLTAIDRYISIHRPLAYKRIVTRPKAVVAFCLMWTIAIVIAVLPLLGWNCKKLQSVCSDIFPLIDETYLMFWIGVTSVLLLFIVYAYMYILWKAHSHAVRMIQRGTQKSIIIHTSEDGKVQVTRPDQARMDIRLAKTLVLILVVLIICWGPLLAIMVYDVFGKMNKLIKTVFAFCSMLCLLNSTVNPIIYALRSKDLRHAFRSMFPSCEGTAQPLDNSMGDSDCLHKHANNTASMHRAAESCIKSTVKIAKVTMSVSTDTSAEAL

As usually defined, the IC50 is the concentration that gives 50% inhibition. On to `CCC(C)(C)c1nnc(-c2nn(-c3ccc(Cl)cc3)c(-c3ccc(Cl)cc3)c2C)s1` [Example 448, 2-(1,5-bis(4-chlorophenyl)-4-methyl-1H-pyrazol-3-yl)-5-tert-pentyl-1,3,4-thiadiazole], for which the IC50 amounted to 199 nM.
In the case of `COc1ccc(C2(c3nnc(-c4nn(-c5ccc(Cl)cc5Cl)c(-c5ccc(Cl)cc5)c4Cn4cncn4)o3)CC2)cc1` [Example 319, 2-(4-((1H-1,2,4-triazol-1-yl)methyl)-5-(4-chlorophenyl)-1-(2,4-dichlorophenyl)-1H-pyrazol-3-yl)-5-(1-(4-methoxyphenyl)cyclopropyl)-1,3,4-oxadiazole], the 50% inhibitory concentration (IC50) came out at 2.89 nM.
Next, `CCc1c(-c2nnc(C3(c4ccccc4F)CC3)s2)nn(-c2ccc(Cl)cc2Cl)c1-c1ccc(Cl)cc1` [Example 501, 2-(5-(4-chlorophenyl)-1-(2,4-dichlorophenyl)-4-ethyl-1H-pyrazol-3-yl)-5-(1-(2-fluorophenyl)cyclopropyl)-1,3,4-thiadiazole]: 6.81 nM; `CCc1c(-c2nnc(C3(c4ccc(OC)cc4)CC3)o2)nn(-c2ccc(Cl)cc2Cl)c1-c1ccc(Br)cc1` [Example 175, 2-(5-(4-bromophenyl)-1-(2,4-dichlorophenyl)-4-ethyl-1H-pyrazol-3-yl)-5-(1-(4-methoxyphenyl)cyclopropyl)-1,3,4-oxadiazole]: 5.71 nM; `Cn1nnnc1Cc1c(-c2nnc(C(C)(C)C)o2)nn(-c2ccc(Cl)cc2Cl)c1-c1ccc(Cl)cc1` [Example 332, 2-tert-butyl-5-(5-(4-chlorophenyl)-1-(2,4-dichlorophenyl)-4-((1-methyl-1H-tetrazol-5-yl)methyl)-1H-pyrazol-3-yl)-1,3,4-oxadiazole]: 14.8 nM.
Turning to `Cc1c(-c2ncc(CC(C)C)o2)nn(-c2ccc(Cl)cc2Cl)c1-c1ccc(Cl)cc1` [Example 641, 2-(5-(4-chlorophenyl)-1-(2,4-dichlorophenyl)-4-methyl-1H-pyrazol-3-yl)-5-isobutyloxazole], the IC50 came out at 40.6 nM.
Under `CC(C)(C)c1nnc(-c2nn(-c3ccc(Cl)cc3Cl)c(-c3ccc(Cl)cc3)c2Cn2ccnn2)o1` [Example 304, 2-(4-((1H-1,2,3-triazol-1-yl)methyl)-5-(4-chlorophenyl)-1-(2,4-dichlorophenyl)-1H-pyrazol-3-yl)-5-tert-butyl-1,3,4-oxadiazole] stands 12.8 nM; under `Cc1c(-c2nnc(C3(Cc4ccccc4)CC3)o2)nn(-c2ccc(Cl)cc2Cl)c1-c1ccc(Cl)cc1` [Example 270, 2-(1-benzylcyclopropyl)-5-(5-(4-chlorophenyl)-1-(2,4-dichlorophenyl)-4-methyl-1H-pyrazol-3-yl)-1,3,4-oxadiazole], 15 nM; under `Clc1ccc(-c2c(Br)c(-c3nnc(C4(c5ccc(Cl)cc5)CC4)o3)nn2-c2ccc(Cl)cc2Cl)cc1` [Example 344, 2-(4-bromo-5-(4-chlorophenyl)-1-(2,4-dichlorophenyl)-1H-pyrazol-3-yl)-5-(1-(4-chlorophenyl)cyclopropyl)-1,3,4-oxadiazole], 11.6 nM.
For `Cc1c(-c2nnc(C3(Cc4ccc(Cl)cc4)CC3)o2)nn(-c2ccc(Cl)cc2Cl)c1-c1ccc(Cl)cc1` [Example 280, 2-(1-(4-chlorobenzyl)cyclopropyl)-5-(5-(4-chlorophenyl)-1-(2,4-dichlorophenyl)-4-methyl-1H-pyrazol-3-yl)-1,3,4-oxadiazole], the IC50 was found to be 11.7 nM.
Under `Cc1c(-c2nnn(C(C)C)n2)nn(-c2ccc(Cl)cc2Cl)c1-c1ccc(Cl)cc1` [Example 576, 5-(5-(4-Chlorophenyl)-1-(2,4-dichlorophenyl)-4-methyl-1H-pyrazol-3-yl)-2-isopropyl-2H-tetrazole] stands 101 nM.
Next, `CCc1c(-c2nnc(C3CC4CCC3C4)s2)nn(-c2ccc(Cl)cc2Cl)c1-c1ccc(Br)cc1` (stereo not shown) [Example 452, 2-(bicyclo[2.2.1]heptan-2-yl)-5-(5-(4-bromophenyl)-1-(2,4-dichlorophenyl)-4-ethyl-1H-pyrazol-3-yl)-1,3,4-thiadiazole]: 54.1 nM.
Under `COC(=O)NC(C)c1c(-c2nnc(C3(c4ccc(Cl)cc4)CC3)o2)nn(-c2ccc(Cl)cc2Cl)c1-c1ccc(Cl)cc1` (stereo not shown) [Example 231, Methyl 1-(5-(4-chlorophenyl)-3-(5-(1-(4-chlorophenyl)cyclopropyl)-1,3,4-oxadiazol-2-yl)-1-(2,4-dichlorophenyl)-1H-pyrazol-4-yl)ethylcarbamate] stands 4.06 nM.
On to `Cc1c(-c2nnc(Cc3ccccc3)s2)nn(-c2ccc(Cl)cc2Cl)c1-c1ccc(Cl)cc1` [Example 354, 2-benzyl-5-(5-(4-chlorophenyl)-1-(2,4-dichlorophenyl)-4-methyl-1H-pyrazol-3-yl)-1,3,4-thiadiazole], for which the IC50 worked out at 26 nM.
Under `Cc1c(-c2nnc(C3CC=CCC3)s2)nn(-c2ccc(Cl)cc2Cl)c1-c1ccc(Cl)cc1` (stereo not shown) [Example 383, 2-(5-(4-chlorophenyl)-1-(2,4-dichlorophenyl)-4-methyl-1H-pyrazol-3-yl)-5-(cyclohex-3-enyl)-1,3,4-thiadiazole] stands 85.3 nM.
Next, `COC(C)c1c(-c2nnc(C(C)(C)C)o2)nn(-c2ccc(Cl)cc2Cl)c1-c1ccc(Cl)cc1` (stereo not shown) [Example 226, 2-tert-butyl-5-(5-(4-chlorophenyl)-1-(2,4-dichlorophenyl)-4-(1-methoxyethyl)-1H-pyrazol-3-yl)-1,3,4-oxadiazole]: 62.7 nM; `CC(C)(C)c1nnc(-c2nn(-c3ccc(Cl)cc3Cl)c(-c3ccc(Cl)cc3)c2CN2C(=O)CCC2=O)o1` [Example 305, 1-((3-(5-tert-butyl-1,3,4-oxadiazol-2-yl)-5-(4-chlorophenyl)-1-(2,4-dichlorophenyl)-1H-pyrazol-4-yl)methyl)pyrrolidine-2,5-dione]: 287 nM.
Under `CCc1c(-c2nnc(C(C)CC)s2)nn(-c2ccc(Cl)cc2Cl)c1-c1ccc(Cl)cc1` (stereo not shown) [Example 398, 2-sec-butyl-5-(5-(4-chlorophenyl)-1-(2,4-dichlorophenyl)-4-ethyl-1H-pyrazol-3-yl)-1,3,4-thiadiazole] stands 7.99 nM; under “2-(5-(4-chlorophenyl)-1-(2,4-dichlorophenyl)-4-methyl-1H-pyrazol-3-yl)-5-cyclohexyl-1,3,4-thiadiazole [Example 347]”, 51.3 nM.
On to `Cc1c(-c2nnc(C(C)CC3CCC3)o2)nn(-c2ccc(Cl)cc2Cl)c1-c1ccc(Cl)cc1` (stereo not shown) [Example 54, 2-(5-(4-chlorophenyl)-1-(2,4-dichlorophenyl)-4-methyl-1H-pyrazol-3-yl)-5-(1-cyclobutylpropan-2-yl)-1,3,4-oxadiazole], for which the IC50 came to 11.2 nM.
Next, `Clc1ccc(-c2c(Cn3cncn3)c(-c3nnc(C4(c5ccc(Cl)cc5)CC4)s3)nn2-c2ccc(Cl)cc2Cl)cc1` [Example 506, 2-(4-((1H-1,2,4-triazol-1-yl)methyl)-5-(4-chlorophenyl)-1-(2,4-dichlorophenyl)-1H-pyrazol-3-yl)-5-(1-(4-chlorophenyl)cyclopropyl)-1,3,4-thiadiazole]: 2.49 nM; `C=CCOC(C)(C)c1nnc(-c2nn(-c3ccc(Cl)cc3Cl)c(-c3ccc(Cl)cc3)c2CC)o1` [Example 239, 2-(2-(allyloxy)propan-2-yl)-5-(5-(4-chlorophenyl)-1-(2,4-dichlorophenyl)-4-ethyl-1H-pyrazol-3-yl)-1,3,4-oxadiazole]: 4.48 nM; `CC(=O)OCc1c(-c2nnc(C(C)(C)C)o2)nn(-c2ccc(Cl)cc2Cl)c1-c1ccc(Cl)cc1` [Example 196, (3-(5-tert-butyl-1,3,4-oxadiazol-2-yl)-5-(4-chlorophenyl)-1-(2,4-dichlorophenyl)-1H-pyrazol-4-yl)methyl acetate]: 22.4 nM.
Next, `C=CCOCC(C)(C)c1nnc(-c2nn(-c3ccc(Cl)cc3Cl)c(-c3ccc(Cl)cc3)c2C)o1` [Example 97, 2-(1-(allyloxy)-2-methylpropan-2-yl)-5-(5-(4-chlorophenyl)-1-(2,4-dichlorophenyl)-4-methyl-1H-pyrazol-3-yl)-1,3,4-oxadiazole]: 15.7 nM; `Cc1c(-c2cc(C(C)(C)C)no2)nn(-c2ccc(Cl)cc2Cl)c1-c1ccc(Cl)cc1` [Example 651, 3-tert-butyl-5-(5-(4-chlorophenyl)-1-(2,4-dichlorophenyl)-4-methyl-1H-pyrazol-3-yl)isoxazole]: 95.2 nM; `CCC(C)c1nnc(-c2nn(-c3ccc(Cl)cc3Cl)c(-c3ccc(Cl)cc3)c2C)s1` (stereo not shown) [Example 367, 2-sec-Butyl-5-(5-(4-chlorophenyl)-1-(2,4-dichlorophenyl)-4-methyl-1H-pyrazol-3-yl)-1,3,4-thiadiazole]: 24.8 nM.
Next, `CCc1c(-c2nnc(C3(c4ccc(Cl)cc4)CCCC3)s2)nn(-c2ccc(Cl)cc2Cl)c1-c1ccc(Br)cc1` [Example 486, 2-(5-(4-bromophenyl)-1-(2,4-dichlorophenyl)-4-ethyl-1H-pyrazol-3-yl)-5-(1-(4-chlorophenyl)cyclopentyl)-1,3,4-thiadiazole]: 23 nM; `CCc1c(-c2nnc(C3(c4ccc(Cl)cc4)CC3)s2)nn(-c2ccc(Cl)cc2Cl)c1-c1ccc(Cl)cc1` [Example 463, 2-(5-(4-chlorophenyl)-1-(2,4-dichlorophenyl)-4-ethyl-1H-pyrazol-3-yl)-5-(1-(4-chlorophenyl)cyclopropyl)-1,3,4-thiadiazole]: 3.95 nM; `Cc1c(-c2nnc(C3CCOCC3)o2)nn(-c2ccc(Cl)cc2Cl)c1-c1ccc(Cl)cc1` [Example 23, 2-(5-(4-Chlorophenyl)-1-(2,4-dichlorophenyl)-4-methyl-1H-pyrazol-3-yl)-5-(tetrahydro-2H-pyran-4-yl)-1,3,4-oxadiazole]: 163 nM.
Turning to `CCCCCCn1nnnc1-c1nn(-c2ccc(Cl)cc2Cl)c(-c2ccc(Cl)cc2)c1C` [Example 603, 5-(5-(4-Chlorophenyl)-1-(2,4-dichlorophenyl)-4-methyl-1H-pyrazol-3-yl)-1-hexyl-1H-tetrazole], the IC50 was determined as 50.6 nM.
Under `CCCc1c(-c2nnc(C3(c4ccc(Cl)cc4)CCC3)o2)nn(-c2ccc(Cl)cc2Cl)c1-c1ccc(Cl)cc1` [Example 187, 2-(5-(4-chlorophenyl)-1-(2,4-dichlorophenyl)-4-propyl-1H-pyrazol-3-yl)-5-(1-(4-chlorophenyl)cyclobutyl)-1,3,4-oxadiazole] stands 11.1 nM.
